This note sets out measurements from patent US8143293B2, “Kinase inhibitors useful for the treatment of myleoprolific diseases and other proliferative diseases” (Deciphera Pharmaceuticals, LLC, priority 2007, dated 2012).

The target of assay [1] is T1, Abl kinase (SEQ ID NO: 1) (Homo sapiens, UniProt P00519).
T1 construct: purchased deCode Genetics
T1 sequence (P00519 with tags, fused parts or gaps): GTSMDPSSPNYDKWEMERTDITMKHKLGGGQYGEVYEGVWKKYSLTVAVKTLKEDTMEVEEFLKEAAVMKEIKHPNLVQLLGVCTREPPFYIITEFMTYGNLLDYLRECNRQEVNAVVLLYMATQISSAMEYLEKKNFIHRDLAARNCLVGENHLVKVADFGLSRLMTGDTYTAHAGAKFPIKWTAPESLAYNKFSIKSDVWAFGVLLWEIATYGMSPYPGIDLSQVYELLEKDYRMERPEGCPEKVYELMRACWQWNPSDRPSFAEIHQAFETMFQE
Put plainly: Abl kinase (SEQ ID NO:1) assay, pyruvate kinase/lactate dehydrogenase coupled. The note with it: 2 h preincubation, ATP 500 μM; read-out: Biochemical IC50, Abl Enzyme Assay. The gist of the method: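 ADP formation was coupled to pyruvate kinase/lactate dehydrogenase, and NADH loss at 340 nm was followed continuously. Compounds were preincubated 2 h at 30° C before 500 μM ATP, and rates from 1.0–2.0 h gave % inhibition and IC50.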

The target of assay [2] is T2, c-Kit kinase (SEQ ID NO:9) (Homo sapiens, UniProt P10721).
T2 construct: contained c-Kit (cKIT residues T544-V976, from ProQinase, 5.4 nM); purchased ProQinase
T2 sequence (P10721 with tags, fused parts or gaps): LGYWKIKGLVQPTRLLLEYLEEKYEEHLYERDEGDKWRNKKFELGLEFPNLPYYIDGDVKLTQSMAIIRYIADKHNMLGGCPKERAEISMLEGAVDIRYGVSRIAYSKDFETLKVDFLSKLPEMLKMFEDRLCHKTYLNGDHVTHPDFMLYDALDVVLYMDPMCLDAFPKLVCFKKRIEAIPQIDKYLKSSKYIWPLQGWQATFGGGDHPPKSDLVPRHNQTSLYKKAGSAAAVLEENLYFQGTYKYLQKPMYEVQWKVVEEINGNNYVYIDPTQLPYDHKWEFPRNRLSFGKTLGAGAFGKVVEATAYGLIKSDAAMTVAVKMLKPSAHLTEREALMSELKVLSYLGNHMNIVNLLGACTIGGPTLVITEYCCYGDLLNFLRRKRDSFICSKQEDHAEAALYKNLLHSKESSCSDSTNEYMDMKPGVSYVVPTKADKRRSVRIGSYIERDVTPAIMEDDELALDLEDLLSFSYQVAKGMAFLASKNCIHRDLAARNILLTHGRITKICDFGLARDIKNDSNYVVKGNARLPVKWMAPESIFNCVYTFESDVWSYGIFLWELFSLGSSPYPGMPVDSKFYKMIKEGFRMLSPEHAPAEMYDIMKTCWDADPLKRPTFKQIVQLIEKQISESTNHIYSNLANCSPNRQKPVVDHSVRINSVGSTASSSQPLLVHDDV
Put plainly: C-Kit kinase (SEQ ID NO:9) assay, pyruvate kinase/lactate dehydrogenase coupled. The note with it: <2 min preincubation, ATP 200 μM; read-out: Biochemical IC50, c-Kit Enzyme Assay. The protocol:
C-Kit Kinase (SEQ ID NO:9) Assay
Activity of c-Kit kinase (SEQ ID NO:9) was determined by following the production of ADP from the kinase reaction through coupling with the pyruvate kinase/lactate dehydrogenase system (e.g., Schindler, et al. Science (2000) 289, 1938-1942). In this assay, the oxidation of NADH (thus the decrease at A340 nm) was continuously monitored spectrophometrically. The reaction mixture (100 μl) contained c-Kit (cKIT residues T544-V976, from ProQinase, 5.4 nM), polyE4Y (1 mg/ml), MgCl2 (10 mM), pyruvate kinase (4 units), lactate dehydrogenase (0.7 units), phosphoenol pyruvate (1 mM), and NADH (0.28 mM) in 90 mM Tris buffer containing 0.2% octyl-glucoside and 1% DMSO, pH 7.5. Test compounds were incubated with […] (SEQ ID NO:9) and other reaction reagents at 22° C. for <2 min before ATP (200 μM) was added to start the reaction. The absorption at 340 nm was monitored continuously for 0.5 hours at 30° C. on Polarstar Optima plate reader (BMG). The reaction rate was calculated using the 0 to 0.5 h time frame. Percent inhibition was obtained by comparison of reaction rate with that of a control (i.e. with no test compound). IC50 values were calculated from a series of percent inhibition values determined at a range of inhibitor concentrations using software routines as implemented in the GraphPad Prism software package.

The target in assay [3] is T3, BaF3 cells transfected with wild type p210 BCR-Abl (Homo sapiens, UniProt P00519).
T3 construct: fused on or other part: P11274 (Breakpoint cluster region protein)
Put plainly: Ba/F3 p210 whole cell proliferation assay. It is filed as cell-based. Conditions: 72 hours, Cell Titer Blue; read-out: Whole Cell Antiproliferation IC50, Ba/F3 p210 whole cell proliferation assay. Background: Resazurin is reduced to fluorescent resorufin, in cell work by metabolically active cells.

Assay [4] has as its target T4, BaF3 cells transfected with T315I p210 BCR-Abl (Homo sapiens, UniProt P00519, T315I, cells depend on it).
T4 construct: fused on or other part: P11274 (Breakpoint cluster region protein)
Put plainly: Ba/F3 p210 T315I whole cell proliferation assay. The class given is cell-based. Conditions: 72 hours, Cell Titer Blue; read-out: Whole Cell Antiproliferation IC50, Ba/F3 p210 T315I whole cell proliferation assay.

Some results are limits rather than exact numbers.

One may read the IC50 as the concentration needed to halve the response being measured. On to `Cc1oc(C(C)(C)C)cc1NC(=O)Nc1ccc(Oc2ccnc(-c3cnn(C)c3)c2)cc1F` [Example 28, 1-(5-tert-butyl-2-methylfuran-3-yl)-3-(2-fluoro-4-(2-(1-methyl-1H-pyrazol-4-yl)pyridin-4-yloxy)phenyl)urea], for which the IC50 in assay [1] and in assay [2] was less than 100 nM throughout. The figures for the GI50 in assay [3] and in assay [4] were less than 100 nM and less than 1000 nM, respectively.
With `Cn1cc(-c2cc(Oc3ccc(NC(=O)Nc4cncc(C(F)(F)F)c4)c(F)c3)ccn2)cn1` [Example 21, 1-(2-fluoro-4-(2-(1-methyl-1H-pyrazol-4-yl)pyridin-4-yloxy)phenyl)-3-(5-(trifluoromethyl)pyridin-3-yl)urea], the IC50 in assay [1] and in assay [2] was less than 100 nM each time. The GI50 in assay [3] and in assay [4] was less than 100 nM in each case.
Turning to `CN(C)CCn1nc(C(C)(C)C)cc1NC(=O)Nc1ccc(Oc2ccnc(-c3cnn(C)c3)c2)cc1F` [Example 12, 1-(3-tert-butyl-1-(2-(dimethylamino)ethyl)-11H-pyrazol-5-yl)-3-(2-fluoro-4-(2-(1-methyl-1H-pyrazol-4-yl)pyridin-4-yloxy)phenyl)urea], the IC50 in assay [1] and in assay [2] was less than 100 nM each time. Besides, the GI50 in assay [3] and in assay [4] was less than 100 nM throughout.
On to `Cn1cc(-c2cc(Oc3ccc(NC(=O)Nc4cnn(C5CCCC5)c4)c(F)c3)ccn2)cn1` [Example 15, 1-(1-cyclopentyl-1H-pyrazol-4-yl)-3-(2-fluoro-4-(2-(1-methyl-1H-pyrazol-4-yl)pyridin-4-yloxy)phenyl)urea], for which the IC50 in assay [1] and in assay [2] was less than 100 nM each time. The GI50 in assay [3] and in assay [4] was less than 100 nM in each case.
Consider `Cn1cc(-c2cc(Oc3ccc(NC(=O)Nc4cc(C(C)(C)C)nn4C)c(F)c3)ccn2)cn1` [Example 2, 1-(3-t-butyl-1-methyl-1H-pyrazol-5-yl)-3-(2-fluoro-4-(2-(1-methyl-1H-pyrazol-4-yl)pyridin-4-yloxy)phenyl)urea], for which the IC50 in assay [1] and in assay [2] was less than 100 nM in each case. Besides, the GI50 in assay [3] and in assay [4] was less than 100 nM in each case.
Consider `CC(C)c1cncc(NC(=O)Nc2ccc(Oc3ccnc(-c4cnn(C)c4)c3)cc2F)c1` [Example 22, 1-(2-fluoro-4-(2-(1-methyl-1H-pyrazol-4-yl)pyridin-4-yloxy)phenyl)-3-(5-isopropylpyridin-3-yl)urea], for which the IC50 in assay [1] and in assay [2] was less than 100 nM in each case. The GI50 in assay [3] and in assay [4] was less than 100 nM throughout.
For `Cn1cc(-c2cc(Oc3ccc(NC(=O)Nc4cnn(C(C)(C)C)c4)c(F)c3)ccn2)cn1` [Example 5, 1-(1-t-butyl-1H-pyrazol-4-yl)-3-(2-fluoro-4-(2-(1-methyl-1H-pyrazol-4-yl)pyridin-4-yloxy)phenyl)urea], the IC50 in assay [1] and in assay [2] was less than 100 nM in each case. Also, the GI50 in assay [3] and in assay [4] was less than 100 nM in each case.
With `Cn1cc(-c2cc(Oc3ccc(NC(=O)Nc4cc(C(F)(F)F)cnc4-c4cnn(C)c4)c(F)c3)ccn2)cn1` [Example 42, 1-(2-fluoro-4-(2-(1-methyl-1H-pyrazol-4-yl)pyridin-4-yloxy)phenyl)-3-(2-(1-methyl-1H-pyrazol-4-yl)-5-(trifluoromethyl)pyridin-3-yl)urea], the IC50 in assay [1] and in assay [2] was less than 100 nM each time. Also, the GI50 in assay [3] and in assay [4] was less than 100 nM throughout.
On to “1-(2-fluoro-4-(2-(1-methyl-1H-pyrazol-4-yl)pyridin-4-yloxy)phenyl)-3-(3-(1-methylcyclopentyl)isoxazol-5-yl)urea [Example 14]”, for which the IC50 in assay [1] and in assay [2] was less than 100 nM each time. Besides, the GI50 in assay [3] and in assay [4] was less than 100 nM throughout.
Consider `Cn1cc(-c2cc(Oc3ccc(NC(=O)Nc4cc(C(C)(C)C)no4)c(F)c3)ccn2)cn1` [Example 1, 1-(3-t-butylisoxazol-5-yl)-3-(2-fluoro-4-(2-(1-methyl-1H-pyrazol-4-yl)pyridin-4-yloxy)phenyl)urea], for which the IC50 in assay [1] and in assay [2] was less than 100 nM throughout. In addition, the GI50 in assay [3] and in assay [4] was less than 100 nM each time.
